From patent US11530244B2, “Cyclic polypeptides for PCSK9 inhibition” (priority 2018, dated 2022)
Starred links: 1 amine or outer side, 2 acyl side, 3 side chain; linkers in the order of their positions; H or OH if unused. Positions of bridges follow the written chain, without caps; N, C: chain ends. Non-standard residues stand in square brackets, D forms with d. Residues, ends and D or L forms follow the SMILES beside them. Groups on a side chain read outwards from the residue. *: point of attachment. X50 = C[C@@H](N[*:1])C(=O)C[C@@H](Cc1c[nH]c2ccc(F)cc12)C(=O)[*:2]; Phe(3-CH2NH2) = O=C([C@H](Cc1cccc(CN[*:3])c1)N[*:1])[*:2]; X1 = O=C1CC[C@@H](C(=O)[*:1])N1CCCSCc1cccc(C[*:2])c1; Trp(5-F) = N[C@@H](Cc1c[nH]c2ccc(F)cc12)C(=O)O; Phe(4-CH2NH2) = NCc1ccc(C[C@H](N)C(=O)O)cc1; X49 = NCCCC[C@H](N[*:1])c1nc(C(=O)[*:2])co1; Heptanedioyl = O=C(CCCCCC(=O)[*:2])[*:1]; Pro(cis-4-F) = O=C(O)[C@@H]1C[C@H](F)CN1; γGlu = O=C(O)[C@H](CCC(=O)[*:2])N[*:1]; mXylylene = c1cc(C[*:1])cc(C[*:2])c1; AEF = NCCOc1ccc(C[C@H](N)C(=O)O)cc1; Adipoyl = O=C(CCCCC(=O)[*:2])[*:1]; Palmitoyl = CCCCCCCCCCCCCCCC(=O)*; αMeP = C[C@@]1(C(=O)O)CCCN1; 3Amb = NCc1cccc(C(=O)O)c1; X51 = COCCOCCOCCOCCC(=O)*; Isobutyryl = CC(C)C(=O)*; Orn = NCCC[C@H](N)C(=O)O; AEEA = NCCOCCOCC(=O)O; X2 = O=C(C[*:2])[*:1]; Piv = CC(C)(C)C(=O)*; X28 = CC(C)(F)C(=O)*; Glycolyl = O=C(CO)*; Mpa = O=C(O)CCS

Columns and labels:
[1] = molecular target: T1, PCSK9 (Homo sapiens (Human), UniProt Q8NBP7); test: PCSK9 Alexa FRET Standard assay (displacement of AlexaFluor647 tagged cyclic peptide Reagent A); format: binding; settings: PCSK9 Alexa FRET Standard assay, 0.5 nM PCSK9, 20 nM AF cyclic peptide Reagent A; read-out: IC50
T1 sequence (Q8NBP7 153-692): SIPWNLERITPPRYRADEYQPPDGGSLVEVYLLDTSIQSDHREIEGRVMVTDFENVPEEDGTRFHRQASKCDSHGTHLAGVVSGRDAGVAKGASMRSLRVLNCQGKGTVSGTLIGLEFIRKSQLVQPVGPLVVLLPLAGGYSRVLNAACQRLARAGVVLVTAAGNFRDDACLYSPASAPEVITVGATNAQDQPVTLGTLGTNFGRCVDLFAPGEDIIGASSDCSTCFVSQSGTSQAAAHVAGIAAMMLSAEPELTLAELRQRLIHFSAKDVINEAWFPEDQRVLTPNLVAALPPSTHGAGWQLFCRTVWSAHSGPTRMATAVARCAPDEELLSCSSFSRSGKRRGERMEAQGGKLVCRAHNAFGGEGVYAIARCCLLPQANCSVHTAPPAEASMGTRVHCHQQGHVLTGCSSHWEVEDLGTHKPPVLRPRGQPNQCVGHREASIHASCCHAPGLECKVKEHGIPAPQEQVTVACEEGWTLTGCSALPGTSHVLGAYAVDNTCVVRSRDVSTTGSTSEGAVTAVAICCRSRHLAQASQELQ
How it was run: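 TR-FRET displacement: 0.5 nM biotinylated PCSK9 with 1.25 nM Strep-Eu and 20 nM AlexaFluor-tagged cyclic peptide (final) in 50 mM HEPES pH 7.4, 0.15 M NaCl, 5 mM CaCl2, 0.01% BSA, 0.01% P20, ≥2 h at room temperature. IC50 from sigmoidal fit, converted to Ki via peptide KD; falling Eu counts flagged false positives.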

[2] = molecular target: T1, PCSK9; test: PCSK9 Alexa FRET Plus assay (displacement of AlexaFluor647 tagged cyclic peptide Reagent B); format: binding; settings: Alexa FRET Plus, 0.5 nM PCSK9, 960 nM AF cyclic peptide Reagent B; read-out: IC50
Method: A solution containing 1 nM biotinylated PCSK9+2.5 nM Lance Streptavidin Europium (Strep-Eu) was made in 50 mM HEPES pH 7.4, 0.15 M NaCl, 5 mM CaCl2), 0.01% BSA, and 0.01% Surfactant P20. A separate solution containing 1920 nM of the AlexaFluor tagged cyclic peptide was made in the same buffer system. An Echo was used to transfer 0.075 ul of compound plus 0.675 ul of DMSO to each well of an assay plate followed by the addition of 15 ul of PCSK9+Stept-Eu and 15 ul of AF peptide. The final assay volume was 30.750 ul containing 0.5 nM PCSK9, 1.25 nM Strep-Eu, and 960 nM AF cyclic peptide. The reaction was incubated at room temperature for at least two hours prior to fluorescence measurements using an Envision Multilabel Reader. IC50 values were determined by fitting data to a sigmoidal dose-response curve using nonlinear regression. Ki was then calculated from the IC50 and the KD of AF cyclic peptide. Counts (B-counts) of the europium-labeled PCSK9 were followed to observe if compounds were adversely affecting PCSK9. A fall off of the B-counts likely indicated a false positive of inhibition. Data from this procedure was reported as “P=‘numerical value’ (nanomolar)”

SMILES	IC50 [1] [nM]	IC50 [2] [nM]
COc1ccc(C[C@@H]2NC(=O)[C@H]([C@@H](C)O)NC(=O)[C@@H]3C[C@H](F)CN3C(=O)[C@H](Cc3c[nH]c4ccc(F)cc34)NC(=O)[C@H](Cc3c[nH]c4ccc(F)cc34)NC(=O)[C@@H](C)NC(=O)[C@H](CCCCN)NC(=O)[C@@H](NC(=O)CO)CC(=O)NCCOc3ccc(cc3)C[C@@H](C(N)=O)NC(=O)[C@]3(C)CCCN3C2=O)cc1 [Compound 115] (Glycolyl-DK[dA][Trp(5-F)][Trp(5-F)][Pro(cis-4-F)]TY(Me)[αMeP][AEF]-NH2; lactam 1-10)	100 to 1000	500 to 5000
COc1ccc(C[C@@H]2NC(=O)[C@H]([C@@H](C)O)NC(=O)[C@@H]3C[C@H](F)CN3C(=O)[C@H](Cc3c[nH]c4ccc(F)cc34)NC(=O)[C@H](Cc3c[nH]c4ccc(F)cc34)NC(=O)[C@@H](C)NC(=O)[C@H](CCCCN)NC(=O)[C@@H](NC(=O)C(C)(C)C)CC(=O)NCCOc3ccc(cc3)C[C@@H](C(N)=O)NC(=O)[C@]3(C)CCCN3C2=O)cc1 [Compound 119] (Piv-DK[dA][Trp(5-F)][Trp(5-F)][Pro(cis-4-F)]TY(Me)[αMeP][AEF]-NH2; lactam 1-10)	21000 to 50000	500 to 5000
C[C@@]12CCCN1C(=O)[C@H](Cc1ccc(O)cc1)NC(=O)[C@H](Cc1c[nH]cn1)NC(=O)[C@H](CC(=O)O)NC(=O)[C@H](Cc1c[nH]c3ccc(F)cc13)NC(=O)[C@H](Cc1c[nH]c3ccc(F)cc13)NC(=O)CNC(=O)[C@@H]1CCC(=O)N1CCCSCc1cccc(c1)CSC[C@@H](C(N)=O)NC2=O [Compound 481] (G[Trp(5-F)][Trp(5-F)]DHY[αMeP]C-NH2; linker N-8 via X1)	1000 to 12100	500 to 5000
COc1ccc(C[C@@H]2NC(=O)[C@@H]3CCCC/C=C\CC[C@@]4(CCCN4C2=O)C(=O)NCCSCc2cccc(c2)CSCCC(=O)N[C@@H](C)C(=O)N[C@H](C)C(=O)N[C@H]2Cc4cccc(c4)CNC(=O)CC[C@@H](C(=O)N3)N3C(=O)[C@@H](NC2=O)C3c2c[nH]c3ccc(F)cc23)cc1 (stereo partly shown) [Compound 524]	100 to 1000	500 to 5000
NC(=O)[C@@H]1Cc2cccc(c2)CNC(=O)CCCCC(=O)NCC(=O)N[C@@H](Cc2c[nH]c3ccc(F)cc23)C(=O)N[C@@H](Cc2c[nH]c3ccc(F)cc23)C(=O)N[C@@H](CC(=O)O)C(=O)N[C@@H](Cc2cnc[nH]2)C(=O)N[C@@H](Cc2ccc(O)cc2)C(=O)N1 [Compound 457] (G[Trp(5-F)][Trp(5-F)]DHY[Phe(3-CH2NH2)]-NH2; linker N-7 via Adipoyl)	21000 to 50000	500 to 5000
C[C@@]12CCCN1C(=O)[C@H](Cc1ccc(O)cc1)NC(=O)[C@H](Cc1c[nH]cn1)NC(=O)[C@H](CC(=O)O)NC(=O)[C@H](Cc1c[nH]c3ccc(F)cc13)NC(=O)[C@H](Cc1c[nH]c3ccc(F)cc13)NC(=O)c1coc(n1)[C@H](CCCCN)NC(=O)CCSCc1cccc(c1)CSC[C@@H](C(N)=O)NC2=O [Compound 477] ([Mpa][X49][Trp(5-F)][Trp(5-F)]DHY[αMeP]C-NH2; linker 1-9 via mXylylene)	1000 to 12100	500 to 5000
COCCOCCOCCOCCC(=O)NCCCC[C@@H]1NC(=O)CCSCc2cccc(c2)CSC[C@@H](C(N)=O)NC(=O)[C@]2(C)CCCN2C(=O)[C@H](Cc2ccc(O)cc2)NC(=O)[C@H](Cc2cnc[nH]2)NC(=O)[C@H](CC(=O)O)NC(=O)[C@H](Cc2c[nH]c3ccc(F)cc23)NC(=O)[C@H](Cc2c[nH]c3ccc(F)cc23)NC(=O)CNC1=O [Compound 484] ([Mpa]K(X51)G[Trp(5-F)][Trp(5-F)]DHY[αMeP]C-NH2; linker 1-10 via mXylylene)	0.11 to 100	0.1 to 100
CCCc1cccc(C[C@@H]2NC(=O)[C@@H](C)NC(=O)[C@H](C)NC(=O)CCSCc3cccc(c3)CSCCNC(=O)[C@]3(C)CCCN3C(=O)[C@H](Cc3ccc(OC)cc3)NC[C@H]([C@@H](C)OC)NC(=O)[C@@H]3[C@@H](O)CCN3C(=O)[C@H](Cc3c[nH]c4ccc(F)cc34)NC2=O)c1 [Compound 459]	21000 to 50000	500 to 5000
COc1ccc(C[C@@H]2NC(=O)[C@H]([C@@H](C)O)NC(=O)[C@@H]3CC[C@H](F)N3C(=O)[C@H](Cc3c[nH]c4ccc(F)cc34)NC(=O)[C@H](Cc3c[nH]c4ccc(F)cc34)NC(=O)[C@@H](C)NC(=O)c3ccc(cc3)-c3ccc(cc3)CNCc3ccc(cc3)C[C@@H](C(N)=O)NC(=O)[C@]3(C)CCCN3C2=O)cc1 [Compound 093]	1000 to 12100	500 to 5000
CCCCCCCCCCCCCCCC(=O)N[C@@H](CCC(=O)NCCOCCOCC(=O)NCCOCCOCC(=O)NCCCC[C@@H]1NC(=O)[C@H](Cc2c[nH]c3ccc(F)cc23)NC(=O)[C@H](Cc2c[nH]c3ccc(F)cc23)CC(=O)[C@@H](C)NC(=O)[C@H](CCCCN)NC(=O)CCSCc2cccc(c2)CSC[C@@H](C(N)=O)NC(=O)[C@]2(C)CCCN2C(=O)[C@H](Cc2ccc(O)cc2)NC(=O)[C@H]([C@@H](C)O)NC1=O)C(=O)O [Compound 101] ([Mpa]K[X50][Trp(5-F)]K([AEEA-AEEA-γGlu-Palmitoyl])TY[αMeP]C-NH2; linker 1-9 via mXylylene)	0.11 to 100	100 to 500
COc1ccc(C[C@@H]2NC(=O)[C@H]([C@@H](C)O)NC(=O)[C@@H]3C[C@H](F)CN3C(=O)[C@H](Cc3c[nH]c4ccc(F)cc34)NC(=O)[C@H](Cc3c[nH]c4ccc(F)cc34)NC(=O)[C@@H](C)NC(=O)[C@H](CCCCN)NC(=O)[C@@H](NC(=O)C(C)(C)F)CC(=O)NCCOc3ccc(cc3)C[C@@H](C(N)=O)NC(=O)[C@]3(C)CCCN3C2=O)cc1 [Compound 112] (X28-DK[dA][Trp(5-F)][Trp(5-F)][Pro(cis-4-F)]TY(Me)[αMeP][AEF]-NH2; lactam 1-10)	0.11 to 100	100 to 500
COc1ccc(C[C@@H]2NC(=O)[C@H]([C@@H](C)O)NC(=O)[C@@H]3C[C@H](F)CN3C(=O)[C@H](Cc3c[nH]c4ccc(F)cc34)NC(=O)[C@H](Cc3c[nH]c4ccc(F)cc34)NC(=O)[C@@H](C)NC(=O)[C@H](CCCCN)NC(=O)[C@@H](NC(C)=O)CCCNC(=O)COc3ccc(cc3)C[C@@H](C(N)=O)NC(=O)[C@]3(C)CCCN3C2=O)cc1 [Compound 091] (Ac-[Orn]K[dA][Trp(5-F)][Trp(5-F)][Pro(cis-4-F)]TY(Me)[αMeP]Y-NH2; linker 1-10 via X2)	0.11 to 100	100 to 500
COc1ccc(C[C@@H]2NC(=O)[C@H](Cc3cnc[nH]3)NC(=O)[C@H](CC(=O)O)NC(=O)[C@H](Cc3c[nH]c4ccc(F)cc34)NC(=O)[C@H](Cc3c[nH]c4ccc(F)cc34)NC(=O)[C@@H](C)NC(=O)CCCCC(=O)NCc3ccc(cc3)C[C@@H](C(N)=O)NC(=O)[C@]3(C)CCCN3C2=O)cc1 [Compound 419] ([dA][Trp(5-F)][Trp(5-F)]DHY(Me)[αMeP][Phe(4-CH2NH2)]-NH2; linker N-8 via Adipoyl)	100 to 1000	500 to 5000
COc1ccc(C[C@@H]2NC(=O)[C@H]([C@@H](C)O)NC(=O)[C@@H]3C[C@H](F)CN3C(=O)[C@H](Cc3c[nH]c4ccc(F)cc34)NC(=O)[C@H](Cc3c[nH]c4ccc(F)cc34)NC(=O)[C@@H](C)NC(=O)[C@H](CCCCN)NC(=O)[C@@H](NC(=O)C(C)C)CC(=O)NCCOc3ccc(cc3)C[C@@H](C(N)=O)NC(=O)[C@]3(C)CCCN3C2=O)cc1 [Compound 123] (Isobutyryl-DK[dA][Trp(5-F)][Trp(5-F)][Pro(cis-4-F)]TY(Me)[αMeP][AEF]-NH2; lactam 1-10)	0.11 to 100	0.1 to 100
C[C@@]12CCCN1C(=O)[C@H](Cc1ccc(O)cc1)NC(=O)[C@H](Cc1c[nH]cn1)NC(=O)[C@H](CC(=O)O)NC(=O)[C@H](Cc1c[nH]c3ccc(F)cc13)NC(=O)[C@H](Cc1c[nH]c3ccc(F)cc13)NC(=O)CNC(=O)[C@@H]1CCC(=O)N1CCCSCc1cccc(c1)CSC[C@@H](C(N)=O)NC2=O [Compound 482] (G[Trp(5-F)][Trp(5-F)]DHY[αMeP]C-NH2; linker N-8 via X1)	0.11 to 100	100 to 500
COc1ccc(C[C@@H]2NC(=O)[C@H](Cc3cnc[nH]3)NC(=O)[C@H](CC(=O)O)NC(=O)[C@H](Cc3c[nH]c4ccc(F)cc34)NC(=O)[C@H](Cc3c[nH]c4ccc(F)cc34)NC(=O)[C@@H](C)NC(=O)CCCCCC(=O)NCc3ccc(cc3)C[C@@H](C(N)=O)NC(=O)[C@]3(C)CCCN3C2=O)cc1 [Compound 440] ([dA][Trp(5-F)][Trp(5-F)]DHY(Me)[αMeP][Phe(4-CH2NH2)]-NH2; linker N-8 via Heptanedioyl)	100 to 1000	100 to 500
C[C@H]1NC(=O)[C@H](CCCCN)NC(=O)CCSCc2cccc(c2)CSC[C@@H](C(N)=O)NC(=O)[C@]2(C)CCCN2C(=O)[C@H](Cc2ccc(O)cc2)NC(=O)c2cccc(c2)CNC(=O)[C@H](Cc2c[nH]c3ccc(F)cc23)NC(=O)[C@H](Cc2c[nH]c3ccc(F)cc23)NC1=O [Compound 089] ([Mpa]K[dA][Trp(5-F)][Trp(5-F)][3Amb]Y[αMeP]C-NH2; linker 1-9 via mXylylene)	0.11 to 100	0.1 to 100
